Experiments:
Assay in all cases: greenhouse post-emergence herbicidal test
APESV = format: in vivo, Apera spica-venti; design: key to herbicidal activity against APESV found: rating on a scale from 0 to 100; conditions: post emergence
Procedure: (§1) The culture containers used were plastic pots containing medium loamy sand with approximately 4.6% of humus and 69.9% sand as substrate. The seeds of the test plants were sown separately for each species.
(§2) For the post-emergence treatment, the test plants were grown to a plant height of from 1 to 15 cm, depending on the plant habit, and only then treated with the active compounds which had been suspended or emulsified in water. To this end, the test plants were either sown directly, and grown in the same containers, or they were first grown separately as seedlings and transplanted into the test containers a few days prior to treatment.
(§3) Depending on the species, the plants were kept at 10-25° C. and 20-35° C., respectively.
(§4) The test period extended over 1 to 3 weeks. During this time, the plants were tended and their response to the individual treatments was evaluated 20 days after treatment except mentioned otherwise.
(§5) Evaluation was carried out using a scale from 0 to 100. 100 means no emergence of the plants, or complete destruction of at least the above-ground parts, and 0 means no damage or normal course of growth.
(§6) The respective stated components A and B, and, if appropriate, C, were formulated as a 10% by weight strength emulsion concentrate and, with addition of the amount of solvent system, introduced into the spray liquor used for applying the active compound. In the examples, the solvent used was water.
(§7) In the examples below, using the method of S. R. Colby (1967) “Calculating synergistic and antagonistic responses of herbicide combinations”, Weeds 15, p. 22 ff., the value E, which is expected if the activity of the individual active compounds is only additive, was calculated. E=X+Y−(X·Y/100)

ERICA = format: in vivo, Conyza canadensis; design: key to herbicidal activity against ERICA found: rating on a scale from 0 to 100; conditions: post emergence
Procedure: as §1, §2, §3, §4, §5, §6, §7

GERDI = format: in vivo, Geranium dissectum; design: key to herbicidal activity against GERDI found: rating on a scale from 0 to 100; conditions: post emergence, B.52 2.5
Procedure: as §1, §2, §3, §4, §5, §6, §7

ALOMY = format: in vivo, Alopecurus myosuroides; design: key to herbicidal activity against ALOMY found: rating on a scale from 0 to 100; conditions: post emergence
Procedure: as §1, §2, §3, §4, §5, §6, §7

VIOAR = format: in vivo, Viola arvensis; design: key to herbicidal activity against VIOAR found / herbicidal activity against VIOLA found: rating on a scale from 0 to 100; conditions: post emergence
Procedure: as §1, §2, §3, §4, §5, §6, §7

ABUTH = format: in vivo, Abutilon theophrast; design: key to herbicidal activity against ABUTH found: rating on a scale from 0 to 100; conditions: post emergence
Procedure: as §1, §2, §3, §4, §5, §6, §7

KCHSC = format: in vivo, Kochia scoparia; conditions: post emergence
Procedure: as §1, §2, §3, §4, §5, §6, §7

POLCO = format: in vivo, Polygonum convolvulus; conditions: post emergence
Procedure: as §1, §2, §3, §4, §5, §6, §7

GALAP = format: in vivo, Galium aparine; conditions: post emergence
Procedure: as §1, §2, §3, §4, §5, §6, §7

IPOHE = format: in vivo, Ipomoea hederacea; design: key to herbicidal activity against IPOHE found: rating on a scale from 0 to 100; conditions: post emergence
Procedure: as §1, §2, §3, §4, §5, §6, §7

PAPRH = format: in vivo, Papaver rhoeas; design: key: rating on a scale from 0 to 100
Procedure: as §1, §2, §3, §4, §5, §6, §7

MATCH = format: in vivo, Matricaria recutita; design: key to herbicidal activity against MATCH found: rating on a scale from 0 to 100; conditions: post emergence; applied alone at 15 g/ha a.i.
Procedure: as §1, §2, §3, §4, §5, §6, §7

[1] = g/ha a.i.: I.1 62.5, B.52 2.5, mixture 62.5+2.5
[2] = g/ha a.i.: I.1 125, B.52 2.5, mixture 125+2.5
[3] = g/ha a.i.: I.1 31.25, B.52 2.5, mixture 31.25+2.5
[4] = g/ha a.i.: I.1 31.25, B.52 5, mixture 31.25+5
[5] = g/ha a.i.: I.1 62.5, B.20 4, mixture 62.5+4
[6] = g/ha a.i.: I.1 31.25, B.20 2, mixture 31.25+2

Q: What does the source list for `COc1cnc(OC)n2nc(NS(=O)(=O)c3c(OCC(F)F)cccc3C(F)(F)F)nc12` [B.52, penoxsulam]?
A: herbicidal activity against APESV found (APESV; [1]): 55; herbicidal activity against APESV found (APESV; [2]): 55; herbicidal activity against ERICA found (ERICA; [3]): 90; herbicidal activity against ERICA found (ERICA; [4]): 90; herbicidal activity against ERICA found (ERICA; [1]): 90; herbicidal activity against ERICA found (ERICA; g/ha a.i.: I.1 62.5, B.52 5, mixture 62.5+5): 90; herbicidal activity against GERDI found (GERDI; g/ha a.i.: I.1 31.25, mixture 31.25+2.5): 80; herbicidal activity against GERDI found (GERDI; g/ha a.i.: I.1 62.5, mixture 62.5+2.5): 80; herbicidal activity against GERDI found (GERDI; g/ha a.i.: I.1 125, mixture 125+2.5): 80; herbicidal activity against ALOMY found (ALOMY; [3]): 55; herbicidal activity against ALOMY found (ALOMY; [1]): 55; herbicidal activity against ALOMY found (ALOMY; [2]): 55; herbicidal activity against VIOAR found (VIOAR; [1]): 0; herbicidal activity against VIOAR found (VIOAR; [2]): 0; herbicidal activity against VIOAR found (VIOAR; g/ha a.i.: I.1 125, B.52 5, mixture 125+5): 60; herbicidal activity against ABUTH found (ABUTH; [3]): 85; herbicidal activity against ABUTH found (ABUTH; [4]): 90; herbicidal activity against ABUTH found (ABUTH; [1]): 85

Q: What does the source list for `CC(C)=NOCCOC(=O)[C@@H](C)Oc1ccc(Oc2cnc3cc(Cl)ccc3n2)cc1` [propaquizafop]?
A: herbicidal activity against APESV found (APESV; applied alone at 5 g/ha a.i.): 65; herbicidal activity against ERICA found (ERICA; applied alone at 5 g/ha a.i.): 0; herbicidal activity against KCHSC found (KCHSC; applied alone at 5 g/ha a.i.): 0; herbicidal activity against KCHSC found (KCHSC; applied alone at 10 g/ha a.i.): 10; herbicidal activity against POLCO found (POLCO; applied alone at 5 g/ha a.i.): 0; herbicidal activity against POLCO found (POLCO; applied alone at 10 g/ha a.i.): 0; herbicidal activity against ALOMY found (ALOMY; applied alone at 5 g/ha a.i.): 55; herbicidal activity against ALOMY found (ALOMY; applied alone at 10 g/ha a.i.): 65; herbicidal activity against ABUTH found (ABUTH; applied alone at 10 g/ha a.i.): 30; herbicidal activity against GALAP found (GALAP; applied alone at 5 g/ha a.i.): 0; herbicidal activity against GALAP found (GALAP; applied alone at 10 g/ha a.i.): 10

Q: With `CC1(C)CON(Cc2ccccc2Cl)C1=O` [B.97, clomazone] as the molecule, how does the pest or weed control at 375 g/ha (ERICA; Erigeron canadensis, post-emergence, 480 h, B.97 alone 375 g/ha a.i., read-out: herbicidal activity against ERICA found) read?
A: 50%

Q: What about the pest or weed control at 750 g/ha (ERICA; Erigeron canadensis, post-emergence, 480 h, B.97 alone 750 g/ha a.i., read-out: herbicidal activity against ERICA found) of the same molecule?
A: 65%

Q: What about the pest or weed control at 375 g/ha (ALOMY; Alopecurus myosuroides, post-emergence, 480 h, B.97 alone 375 g/ha a.i., read-out: herbicidal activity against ALOMY found) of the same molecule?
A: 45%

Q: What about the pest or weed control at 750 g/ha (ALOMY; Alopecurus myosuroides, post-emergence, 480 h, B.97 alone 750 g/ha a.i., read-out: herbicidal activity against ALOMY found) of the same molecule?
A: 60%

Q: What about the pest or weed control at 375 g/ha (VIOAR; Viola arvensis, post-emergence, B.97 alone 375 g/ha a.i., read-out: herbicidal activity against VIOAR found) of the same molecule?
A: 85%

Q: What about the pest or weed control at 750 g/ha (IPOHE; Ipomoea hederacea, post-emergence, 480 h, B.97 alone 750 g/ha a.i., read-out: herbicidal activity against IPOHE found) of the same molecule?
A: 45%

Q: Which “herbicidal activity against APESV found” value (APESV; [5]) does the source give for `COc1cc(OC)nc(Oc2cccc(Oc3nc(OC)cc(OC)n3)c2C(=O)O)n1` [B.20, bispyribac-sodium] here?
A: 60

Q: What about the “herbicidal activity against ALOMY found” value (ALOMY; [5]) of the same molecule?
A: 55

Q: What about the “herbicidal activity against ALOMY found” value (ALOMY; g/ha a.i.: I.1 125, B.20 2, mixture 125+2) of the same molecule?
A: 30

Q: What about the “herbicidal activity against ALOMY found” value (ALOMY; g/ha a.i.: I.1 125, B.20 4, mixture 125+4) of the same molecule?
A: 55

Q: And the “herbicidal activity against ABUTH found” value (ABUTH; [6])?
A: 35

Q: And the “herbicidal activity against ABUTH found” value (ABUTH; g/ha a.i.: I.1 31.25, B.20 4, mixture 31.25+4)?
A: 65

Q: And the “herbicidal activity against IPOHE found” value (IPOHE; [6])?
A: 30

Q: With `CCS(=O)(=O)c1nc2ccccn2c1S(=O)(=O)NC(=O)Nc1nc(OC)cc(OC)n1` [B.60, sulfosulfuron] as the molecule, how does the pest or weed control at 3 g/ha (APESV; Apera spica-venti, post-emergence, 480 h, 3 g/ha a.i., read-out: herbicidal activity against APESV found) read?
A: 60%

Q: What about the pest or weed control at 3 g/ha (ERICA; Erigeron canadensis, post-emergence, 480 h, 3 g/ha a.i., read-out: herbicidal activity against ERICA found) of the same molecule?
A: 75%

Q: What about the pest or weed control at 3 g/ha (POLCO; Fallopia convolvulus, post-emergence, 480 h, 3 g/ha a.i., read-out: herbicidal activity against POLCO found) of the same molecule?
A: 90%

Q: And the pest or weed control at 3 g/ha (ALOMY; Alopecurus myosuroides, post-emergence, 480 h, 3 g/ha a.i., read-out: herbicidal activity against ALOMY found)?
A: 60%

Q: And the pest or weed control at 3 g/ha (VIOAR; Viola arvensis, post-emergence, 3 g/ha a.i., read-out: herbicidal activity against VIOAR found)?
A: 65%

Q: What about the “herbicidal activity against PAPRH found” value (PAPRH; 3 g/ha a.i.) of the same molecule?
A: 90

Q: `CCOC(=O)[C@@H](C)Oc1ccc(Oc2cnc3cc(Cl)ccc3n2)cc1` [quizalofop-p-ethyl] was tested. Which “herbicidal activity against ERICA found” value (ERICA; applied alone at 7.5 g/ha a.i.) did it give?
A: 0

Q: What about the “herbicidal activity against ERICA found” value (ERICA; applied alone at 15 g/ha a.i.) of the same molecule?
A: 20

Q: What about the “herbicidal activity against MATCH found” value (MATCH) of the same molecule?
A: 0

Q: What about the “herbicidal activity against VIOAR found” value (VIOAR; applied alone at 7.5 g/ha a.i.) of the same molecule?
A: 0

Q: And the “herbicidal activity against VIOAR found” value (VIOAR; applied alone at 15 g/ha a.i.)?
A: 0

Q: What about the “herbicidal activity against ABUTH found” value (ABUTH; applied alone at 7.5 g/ha a.i.) of the same molecule?
A: 15

Q: What about the “herbicidal activity against ABUTH found” value (ABUTH; applied alone at 15 g/ha a.i.) of the same molecule?
A: 25

Q: What about the “herbicidal activity against PAPRH found” value (PAPRH; applied alone at 15 g/ha a.i.) of the same molecule?
A: 50

From patent US10881110B2, “Herbicidal compositions comprising isoxazolo[5,4-b]pyridines” (BASF SE, priority 2014, dated 2021)
